In brackets after ≈: the same amount, converted by molar mass.
Columns and labels:
[1] = biological target: T1, Transcription intermediary factor 1-alpha (Homo sapiens, UniProt O15164); assay: Inhibition of recombinant human His-tagged TRIM24-PHD/bromodomain expressed in Escherichia coli strains BL21 (DE3) cells using biotinylated H3K23ac (1 to 33 residues) peptide after 1 hr by AlphaScreen assay
T1 sequence (O15164 whole entry): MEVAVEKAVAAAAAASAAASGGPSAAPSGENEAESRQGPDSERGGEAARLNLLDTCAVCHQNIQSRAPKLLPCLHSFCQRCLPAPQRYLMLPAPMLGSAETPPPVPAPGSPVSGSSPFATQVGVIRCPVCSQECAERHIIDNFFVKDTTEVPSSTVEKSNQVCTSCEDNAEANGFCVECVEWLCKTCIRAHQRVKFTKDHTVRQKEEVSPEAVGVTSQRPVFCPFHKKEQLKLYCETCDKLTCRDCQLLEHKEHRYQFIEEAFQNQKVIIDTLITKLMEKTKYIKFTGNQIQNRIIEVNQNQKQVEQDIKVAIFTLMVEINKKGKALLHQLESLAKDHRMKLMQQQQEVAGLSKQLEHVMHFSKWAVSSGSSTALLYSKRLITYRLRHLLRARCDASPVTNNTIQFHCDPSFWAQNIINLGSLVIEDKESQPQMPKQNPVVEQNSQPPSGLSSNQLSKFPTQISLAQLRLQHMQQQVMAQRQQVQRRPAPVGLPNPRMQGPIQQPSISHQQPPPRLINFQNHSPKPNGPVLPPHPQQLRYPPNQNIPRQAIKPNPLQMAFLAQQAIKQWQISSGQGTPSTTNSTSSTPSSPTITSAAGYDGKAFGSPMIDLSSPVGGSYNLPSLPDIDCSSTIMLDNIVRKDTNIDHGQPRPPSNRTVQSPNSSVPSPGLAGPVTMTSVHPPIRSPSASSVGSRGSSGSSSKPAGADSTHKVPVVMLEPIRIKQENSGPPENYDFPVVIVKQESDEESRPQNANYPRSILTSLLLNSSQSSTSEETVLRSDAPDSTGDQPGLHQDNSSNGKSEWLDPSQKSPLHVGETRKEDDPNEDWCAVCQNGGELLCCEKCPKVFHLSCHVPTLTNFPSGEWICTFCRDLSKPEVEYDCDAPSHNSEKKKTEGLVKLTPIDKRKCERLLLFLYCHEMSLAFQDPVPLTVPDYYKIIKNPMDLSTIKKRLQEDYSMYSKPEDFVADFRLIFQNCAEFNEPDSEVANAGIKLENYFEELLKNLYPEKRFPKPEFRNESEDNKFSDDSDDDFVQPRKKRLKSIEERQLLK

[2] = biological target: T1, Transcription intermediary factor 1-alpha; assay: Inhibition of Flag-tagged TRIM24-PHD/bromodomain (unknown origin) expressed in human HeLa cells for 2 hrs by AlphaLisa assay; type: cell-based
[3] = Kinetic solubility of compound in phosphate buffer at pH 7
[4] = Clearance in CD1 mouse at 1 mg/kg, iv; type: ADME, organism-based; conditions: in vivo
[5] = Terminal half life in CD1 mouse at 1 mg/kg, iv; type: ADME, organism-based; conditions: in vivo, read-out: beta t1/2 (converted)
[6] = Oral bioavailability in CD1 mouse at 10 mg/kg; type: ADME, organism-based; conditions: in vivo
[7] = Apparent permeability from apical to basolateral side in human Caco2 cells; conditions: Caco-2

SMILES	IC50 [1] [µM]	EC50 [2] [µM]	solubility kinetic [3] [µM]	further results
COc1cc2c(cc1NS(=O)(=O)c1cccc(C#N)c1)n(C)c(=O)n2C	10			
COc1ccc(S(=O)(=O)Nc2ccc3c(c2)n(C)c(=O)n3C)cc1	9.3			
Cn1c(=O)n(C)c2cc(NS(=O)(=O)c3ccccc3)ccc21	23			
COc1ccc(Oc2cc3c(cc2NS(=O)(=O)c2ccccc2)n(C)c(=O)n3C)cc1	1.5			
CN1C(=O)CCc2cc(NS(=O)(=O)c3ccc(C4CCCCC4)cc3)ccc21	2.8			
CCCCOc1cccc(Oc2cc3c(cc2NS(=O)(=O)c2cn(C)c(C)n2)n(C)c(=O)n3C)c1	0.16	3		
Cc1nc(S(=O)(=O)Nc2cc3c(cc2Oc2cccc(OCC(C)C)c2)n(C)c(=O)n3C)cn1C	0.057		87 (≈ 43.5 µg/mL)	
COCCCOc1cccc(Oc2cc3c(cc2NS(=O)(=O)c2cn(C)c(C)n2)n(C)c(=O)n3C)c1	0.13	2.7	100 (≈ 51.6 µg/mL)	
CCCOc1cc(OCCCN)cc(Oc2cc3c(cc2NS(=O)(=O)c2ccc(OC)c(OC)c2)n(C)c(=O)n3C)c1	0.013	0.12		
CCCOc1cc(OCCCCN(C)C)cc(Oc2cc3c(cc2NS(=O)(=O)c2ccc(OC)c(OC)c2)n(C)c(=O)n3C)c1			76 (≈ 48.9 µg/mL)	clearance [4]: 43 mL/min/kg; half-life [5]: 42 min; bioavailability [6]: 29%
Cn1cnc(S(=O)(=O)Nc2cc3c(cc2Oc2ccc(OCc4ccccc4)cc2)n(C)c(=O)n3C)c1	2	> 33		
CCCOc1cc(OCCCCCCNC(=O)OC(C)(C)C)cc(Oc2cc3c(cc2NS(=O)(=O)c2cn(C)cn2)n(C)c(=O)n3C)c1	0.16	5.5		
CSc1ccc(S(=O)(=O)Nc2ccc3c(c2)n(C)c(=O)n3C)cc1	4.9			
CCOc1cccc(Oc2cc3c(cc2NS(=O)(=O)c2cn(C)c(C)n2)n(C)c(=O)n3C)c1	0.18	2.3	74 (≈ 34.9 µg/mL)	
CC(C)COc1ccc(S(=O)(=O)Nc2ccc3c(c2)CCC(=O)N3C)cc1	3.7			
CCCOc1cc(OCCCCCCN)cc(Oc2cc3c(cc2NS(=O)(=O)c2ccc(OC)c(OC)c2)n(C)c(=O)n3C)c1	0.013	0.17		
CCCOc1cc(OCCCCCCO)cc(Oc2cc3c(cc2NS(=O)(=O)c2cn(C)cn2)n(C)c(=O)n3C)c1	0.06	1.8		
CC(C)COc1ccc(S(=O)(=O)Nc2ccc3c(c2)n(C)c(=O)n3C)cc1	4			
COc1ccc(S(=O)(=O)Nc2cc3c(cc2Oc2cccc(OCCCCN(C)C)c2)n(C)c(=O)n3C)cc1OC	0.27	3.2	66 (≈ 38.6 µg/mL)	

SMILES	IC50 [1] [µM]	EC50 [2] [µM]	solubility kinetic [3] [µM]	further results
CCCOc1cc(OCCCCN)cc(Oc2cc3c(cc2NS(=O)(=O)c2ccc(OC)c(OC)c2)n(C)c(=O)n3C)c1	0.0083	0.059	42 (≈ 25.8 µg/mL)	
CSc1ccc(S(=O)(=O)Nc2ccc3c(c2)CC(=O)N3C)cc1	17			
CCCOc1cccc(Oc2cc3c(cc2NS(=O)(=O)c2cn(C)c(C)n2)n(C)c(=O)n3C)c1	0.053	0.95	62 (≈ 30.1 µg/mL)	
CC(C)COc1cccc(Oc2cc3c(cc2NS(=O)(=O)C2CC2)n(C)c(=O)n3C)c1	0.11	5	0.78 (≈ 0.348 µg/mL)	
CCCOc1cc(OCCCCN)cc(Oc2cc3c(cc2NS(=O)(=O)c2cn(C)cn2)n(C)c(=O)n3C)c1	0.0079	0.12		
COc1ccc(S(=O)(=O)Nc2cc3c(cc2Oc2cccc(OCc4ccccc4)c2)n(C)c(=O)n3C)cc1OC	0.14	3.9	0.6 (≈ 0.345 µg/mL)	Papp A→B [7]: 21 ×10⁻⁶ cm/s
Cn1c(=O)n(C)c2cc(NS(=O)(=O)c3ccc(C4CCCCC4)cc3)ccc21	1.7			
COc1cc2c(cc1NS(=O)(=O)c1ccccc1)CCC(=O)N2C	36			
CCCOc1cc(OCCCCCN)cc(Oc2cc3c(cc2NS(=O)(=O)c2cn(C)cn2)n(C)c(=O)n3C)c1	0.011	0.11		
Cc1nc(-c2ccc3c(c2)CC(=O)N3C)cs1	8.5			
COc1ccc(S(=O)(=O)Nc2ccc3c(c2)CCC(=O)N3C)c(OC)c1	2.5			
CSc1ccc(S(=O)(=O)Nc2ccc3c(c2)N(C)C(=O)CC3)cc1	14			
Cc1nc(S(=O)(=O)Nc2cc3c(cc2Oc2cccc(OCc4ccccc4)c2)n(C)c(=O)n3C)cn1C	0.27	4.9		
CC(C)COc1cccc(Oc2ccc3c(c2)n(C)c(=O)n3C)c1	2.4	> 36	2.6 (≈ 0.849 µg/mL)	
Cn1cnc(S(=O)(=O)Nc2cc3c(cc2Oc2cccc(OCC4CCOC4)c2)n(C)c(=O)n3C)c1 (configuration not stated)	0.1	1.9	77 (≈ 39.5 µg/mL)	
CSc1ccc(S(=O)(=O)Nc2ccc3c(c2)CCC(=O)N3C)cc1	4.8			
CCCOc1cccc(Oc2cc3c(cc2NS(=O)(=O)c2ccc(OC)c(OC)c2)n(C)c(=O)n3C)c1	0.043	0.83	1.1 (≈ 0.58 µg/mL)	
CCCOc1cc(OCCCCCCN)cc(Oc2cc3c(cc2NS(=O)(=O)c2cn(C)cn2)n(C)c(=O)n3C)c1	0.01	0.17		
